Laboratory results taken from patent US10792377B2, “Compounds and method for imaging cancer” (Vanderbilt University, priority 2017, dated 2020).

Key:
murine COX-2 = biological target: T1, murine COX-2 (Mus musculus, UniProt Q05769); assay: In vitro purified COX-2 inhibition assay (TLC, 14C-arachidonic acid); format: biochemical; conditions: for COX-2 Selectivity Index (COX-1 IC50/COX-2 IC50): in vitro, purified enzymes
T1 sequence (Q05769 18-604): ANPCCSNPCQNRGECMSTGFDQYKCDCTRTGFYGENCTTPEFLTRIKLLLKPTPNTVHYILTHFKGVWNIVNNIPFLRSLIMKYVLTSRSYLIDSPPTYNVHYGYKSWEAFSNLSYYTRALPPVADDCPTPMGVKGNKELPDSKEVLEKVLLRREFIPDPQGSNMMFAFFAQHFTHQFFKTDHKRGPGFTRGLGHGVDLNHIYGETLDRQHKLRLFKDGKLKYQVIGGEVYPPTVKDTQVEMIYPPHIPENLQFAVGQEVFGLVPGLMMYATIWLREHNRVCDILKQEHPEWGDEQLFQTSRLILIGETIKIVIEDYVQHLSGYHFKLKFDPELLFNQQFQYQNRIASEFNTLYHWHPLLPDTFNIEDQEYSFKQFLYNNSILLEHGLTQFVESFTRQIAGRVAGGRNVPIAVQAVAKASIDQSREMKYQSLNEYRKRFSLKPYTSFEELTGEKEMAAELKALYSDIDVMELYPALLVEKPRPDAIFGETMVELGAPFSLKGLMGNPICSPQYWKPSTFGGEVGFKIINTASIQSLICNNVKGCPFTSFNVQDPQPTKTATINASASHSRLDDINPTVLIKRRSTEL
Method: The in vitro cyclooxygenase (ovine COX-1 or human COX-2) inhibitory activities of these probes were tested by a previously described TLC assay (FIGS. 19-21). Briefly, reaction mixtures of 200 μL consisted of hematin-reconstituted protein in 100 mM Tris-HCl, pH 8.0, 500 μM phenol, and [1-^14C]arachidonic acid (50 μM, about 55-57 mCi/mmol, Perkin Elmer).
Inhibition Assay Using Purified COX-1 and COX-2. Inhibition of purified ovine COX-1 or mouse COX-2 by test compounds was assayed by a previously described method, which quantifies the conversion of [1-^14C]arachidonic acid to [1-^14C]prostaglandin products. Reaction mixtures of 200 ∝L consisted of hematin-reconstituted protein in 100 mM Tris-HCl, pH 8.0, 500 μM phenol, and [1-^14C]arachidonic acid (50 μM, ˜55-57 mCi/mmol, Perkin Elmer). For the time-dependent inhibition assay, hematin-reconstituted COX-1 ([…]) was preincubated at 25° C. for 17 min and 37° C. for 3 min with varying inhibitor concentrations in dimethylsulfoxide followed by the addition of [1-^14C]arachidonic acid (50 μM) for 30 s at 37° C. Reactions were terminated by solvent extraction in diethyl ether:methanol:1 M citrate buffer, pH 4.0 (30:4:1). The phases were separated by centrifugation at 2000 g for 2 min, and the organic phase was spotted on a thin-layer chromatography plate (EMD Kieselgel 60, VWR). The plate was developed in ethyl acetate:methylene chloride:glacial AcOH (75:25:1) at 4° C. Radiolabeled products were quantified with a radioactivity scanner (Bioscan, Inc., Washington, D.C.).

[1] = Fluorometry: extinction, quantum yield, fluorescence in DMSO/EtOH; format: physicochemical
Method: The TEMPO- and PROXYL-fluorocoxib probes are non-fluorescent (Φfl<0.3) in their non-trapped form, whereas fluorocoxib A or B are highly fluorescent (Φfl[…]) (FIG. 13). However, the absorbance and fluorescence of the TEMPO- and PROXYL-fluorocoxib probes increases in a time-dependent fashion when incubated in a DMSO/EtOH solution (FIGS. 14-15). Referring to FIG. 15, it is noted that at about 16 hours, fluorescence (ex 586 nm) read about 120,000 cps at 607 nm. Turning to FIG. 16, as compared to 5-ROX acid, which had extinction of 36/mM/cm at 580 nm and quantum yield of 0.94 at 604 nm, and fluorocoxib A, which had extinction of 45/mM/cm at 579 nm and quantum yield of 0.93 at 602 nm, fluorocoxib Q1 had extinction of less than 0.4/mM/cm at 586 nm and quantum yield of less than 0.36 at 607 nm. Without wishing to be bound by theory, it is believed that the time-dependent increase in fluorescence and measured fluorescence at 607 nm is the result of reduction/oxidation of fluorocoxib Q1 in the DMSO/EtOH solution (FIG. 16).
Fluorometry. Steady state fluorescence excitation and emission spectra were determined for each compound with a Spex 1681 Fluorolog spectrofluorometer, equipped with a 450 W xenon arc lamp. […]

1483 HNSCC cells = assay: Fluorescence microscopy of 1483 HNSCC cells; format: cell-based, human; conditions: 1483 cells, 0.5 h preincubation
Method: To test the specific activation of probes in cancer cells, compound 1 was incubated at selected time points (0.5, 1.0, 2.0, 3.0 h). After washout, the cells were imaged under fluorescence microscope.
Fluorescence microscopy of 1483 HNSCC cells. Fluorescence imaging of human 1483 HNSCC cells by compound 1 was performed by a previously described method. Briefly, human 1483 HNSCC cells were grown to 60% confluence. The cells were incubated in 2.0 ml Hank's balanced salt solution (HBSS)/Tyrode's with 200 nM compound 1 for 30 min at 37° C. The cells were then washed briefly three times and incubated in HBSS/Tyrode's for 30 min at 37° C. Following the required washout period, the cells were imaged in 2.0 ml fresh HBSS/Tyrode's on a Zeiss Axiovert 25 Microscope with the propidium iodide filter (0.5-1.0 sec exposure, gain of 2).

[2] = system: COX-2 expressing 1483 tumors; assay: In vivo imaging of nude mice with 1483 xenografts; conditions: 1 mg/kg intraperitoneal, nude mice 1483 xenografts
Method: The specificity of probe 1 was also evaluated by targeting COX-2 in human tumor xenografts. Nude mice bearing 1483 xenograft tumors on the left flank were dosed by intraperitoneal injection with 1 mg/kg fluorocoxib A or compound 1 (FIG. 25). […] However, signal was detected in the COX-2 expressing 1483 tumors of mice dosed with compound 1 starting at 24 h. Maximum fluorescence is detectable in the tumor at 48 h post-injection of probe 1 (FIGS. 27A-C).
Establishment of xenograft tumors in nude mice. Human 1483 HNSCC cells and HCT116 colorectal carcinoma cells were used to grow tumor xenografts in nude mice using a previously described method. Female nude mice, NU-Foxlnu, were purchased at 6-7 weeks of age from Charles River Labs. Human 1483 HNSCC cells were trypsinized and resuspended in cold PBS containing 30% Matrigel such that 1×10^6 cells in 100 μl were injected subcutaneously on the left flank and grew for 2-3 weeks.
In vivo imaging of nude mice with xenografts. Fluorescence imaging of tumors by test compounds was performed by a previously described method. Female nude mice bearing medium-sized 1483 xenograft tumors on the left flank were dosed by intraperitoneal injection with 1 mg/kg compound 1. The animals were lightly anesthetized with 2% isoflurane for fluorescence imaging in the Xenogen IVIS 200 with the DSRed filter at 1.5 cm depth and 1 sec exposure (f2).

SMILES | COX-2 Selectivity Index (COX-1 IC50/COX-2 IC50) (murine COX-2) | extinction ([1]; at 580 nm (5-ROX acid), 579 nm (fluorocoxib A), 586 nm (fluorocoxib Q1)) [mM⁻¹ cm⁻¹] | quantum yield ([1]; at 604 nm (5-ROX acid), 602 nm (fluorocoxib A), 607 nm (fluorocoxib Q1)) | intracellular fluorescence (1483 HNSCC cells) | fluorescence in the tumor ([2]; 3 h post-injection) | IC50 (murine COX-2; COX-2 IC50, in vitro purified cox assay) [nM] | IC50 (murine COX-2; mCOX-2 IC50, purified murine COX-2 (63 nM), inhibitor 20 min, then 1-14C-AA (50 μM) 37° C. 30 s, duplicates) [nM] | time post-injection at which tumor signal starts to be detected [2] [h] | time post-injection of maximum tumor fluorescence [2] [h]
COc1ccc2c(c1)c(CC(=O)NCCCCNC(=O)c1ccc(C3=c4cc5c6c(c4Oc4c3cc3c7c4CCCN7CCC3)CCC[N+]=6CCC5)c(C(=O)[O-])c1)c(C)n2C(=O)c1ccc(Cl)cc1 [Fluorocoxib A, reference compound] | >35 | 45 | 0.93 | bright fluorescence | fluorescence was observed in the tumor |  |  |  | 
COc1ccc2c(c1)c(CC(=O)NCCCCNC(=O)c1ccc(C3=c4cc5c6c(c4Oc4c3cc3c7c4CCCN7CCC3)CCC[N+]=6CCC5)c(C(=O)NC3CC(C)(C)N([O])C(C)(C)C3)c1)c(C)n2C(=O)c1ccc(Cl)cc1 [Compound 1] | >83 |  |  |  |  | 303 | 300 | 24 | 48
